# Counter-ions that a name gives are not always drawn.
# Legend:
# [1] = tested on: depressive-like behavior; assay: Forced swim test in dark phase (Example 4)
# Method: • Species: Rattus norvegicus • Strain: Sprague Dawley (SD) • Sex and Age: Male, 8-10 weeks old • Source: Hylasco Biotechnology Pvt.
# Study was carried out as a staggered treatment, each treatment group divided as cohort 1, cohort 2 and cohort 3.
# Swim 2 was carried out between 19:30 to 21:30. Animals were administered test compounds from 18:30 onwards in staggered manner 60 minutes before FST 2.
# Forced Swim Test was carried out in Dark Phase
# On Day 1, animals were subjected to forced swim test training for 15 minutes (Swim 1) and on Day 2, Swim 2 was carried out post treatment.
# On day 2 animals were dosed with respective treatment 60 min prior to performing FST.
# Forced swim test (Swim 2) was scored manually with no video recording
# Forced swim test (FST), was used to study the depressive-like behavior in rodents. The test was carried out in transparent cylindrical glass containers measuring 46 cm in height and 20 cm in diameter.
# The containers were filled with water (23-25° C.) to a depth of 30 cm.
# There were 2 swim sessions, 24 h apart. The first session, Swim 1 was the pretest/training stage (15 min) and the second session, Swim 2, was the test stage (8 min).
# In swim 2, first 1-minute data was excluded from analysis and rest 7 minutes data was considered. In 7 minutes, data, it was divided 5 minutes and 2 minute.
# Rat was placed in the water-filled cylinder for 15 min (Swim 1). […]
# [2] = tested on: spontaneous locomotor activity; assay: Open field test (Example 7); settings: 60 min post dose, 30 minutes tracking, vs vehicle
# Method: Test system: Mice Strain/Gender: Swiss albino/Male Study: Open field test
# Open field test: The spontaneous locomotor activity in terms of total distance traveled is measured in open field test. Comparatively lower distance traveled would indicate either less motor activity or sedation.
# Mice were brought to the laboratory and allowed to acclimatize to the environment for at least 7 days. The open field test was done in lighting conditions of 40 lux light. The mice were dosed as per the allocation. After a post dose interval of 60 minutes, 4 mice from a group were placed in the open field and the movement was tracked for a period of 30 minutes. Once the trial was over the mice were removed from the open field and the arena was cleaned. Following this, next set of 4 mice were placed in the arena and tracked.
# The distance travelled for a period of 30 minutes was analyzed in bins of 5 minutes and was compared with that of the vehicle group using one-way ANOVA followed by Dunnett's test. All statistical analysis were performed using Graph pad prism software package (Version 7 or Higher) and p value below 0.05 was considered as significant.
# [3] = tested on: yohimbine-induced noradrenergic hyperarousal; assay: Elevated plus maze, latrepirdine at different doses in yohimbine-induced hyperarousal (Example 3); type: in vivo, Wistar rats; settings: for Percent increase as referred to the Vehicle level, Entries / Percent increase as referred to the Vehicle level, Time: yohimbine 2.5 mg/kg i.p. 30 min, 60 min
# Method: Drug preparation: All compounds/drugs were prepared in normal saline (0.9% NaCl).
# Yohimbine was prepared at a solution of 2.5 mg/mL which when injected i.p. at a dosage volume of 1 mL/kg results in a dose of 2.5 mg/kg. Diazepam was prepared at a solution of 1 mg/mL which when injected i.p. at a dosage volume of 1 mL/kg results in a dose of 1 mg/kg. Latrepirdine dihydrochloride hydrate was prepared at a solution of 7.5, 2.5, 0.75 and 0.25 mg/mL which when injected i.m. at a volume of 100 μL for a rat of 250 g results in doses of 3; 1; 0.3 and 0.1 mg/kg; respectively. Latrepirdine dihydrochloride hydrate was also prepared at […] which when administrated i.p. at a dosage volume of 1 mL/kg results in a dose of 3 mg/kg.
# Male Wistar rats (Janvier; Le Genest St Isle-France) were used for the study. They were purchased at a body weight of 150 g and reached a body weight of about 220 g at the time of use. They were group-housed (3-4 rats per cage) and maintained in a room with controlled temperature (21-22° C.) and a reversed light-dark cycle (12 h/12 h; lights on: 17:30-05:30; lights off: 05:30-17:30) with food and water available ad libitum.
# Rats were distributed in 9 different experimental groups with 12 rats per group as illustrated in Table 6. Each experimental group was also coded so that the experimenter became unaware of the true experimental group at the time EPM trial.
# The rats were randomly assigned to one of the different experimental groups. Each animal was identified by its group name, cage number, series (day) of experiment, and a number (from 1 to 9) written with permanent ink on its tail. They were handled by an experimenter for about 3 min each day during 1 week prior to the day of EPM trial. The apparatus was a PVC maze covered with Plexiglas and subdivided into four equal exploratory arms (40×10 cm), which were all interconnected by a small platform (10×10 cm). The apparatus was placed 65 cm above the floor. Two arms were opened, and two others were closed with wall (high: 10 cm). After compound administration, rat was placed on the platform opposite a closed arm. The number of entries and the time spent in each arm were recorded during a 5 min period. The animal was considered as entered in an arm when it placed its four paws in the arm. The apparatus was cleaned between each animal using alcohol (70%). Urine and feces were removed from the maze. During the trials, animal handling and the visibility of the operator were minimized as much as possible.
# Analysis of variance (ANOVA) was performed on the result data. Fisher's PLSD was used for pairwise comparisons and p value≤0.05 were considered significant. For the sake of comparison, the change in the EPM performance of Yohimbine rats was expressed as a percentage of increase/decrease as referred to the level recorded in the vehicle (set as 0% change). Therefore, for each of the EPM parameter, the following formula was used: [performance of a given group-performance of vehicle group]/[performance of vehicle group]×100
# [4] = tested on: aggressive behavior; assay: Resident intruder task (Example 5); type: in vivo, Swiss albino mice; settings: 10 mg/kg i.p., 60 min prior to trial; mean value
# Method: Strain/Gender: Swiss albino/Male
# Bilateral ovariectomy surgery was carried out in 3-4 weeks old female Swiss albino mice as per the standard methods (Alagwu and Nneli, 2005). Animals were anesthetized using Avertin (2,2,2-Tribromoethanol) at 250 mg/kg, i.p. and were laid down on the surgery table and fixed with adhesive plaster. A midline incision was made on the dorsal region below the rib and 1 cm lateral to the either side of midline, a small incision was made on fascia to isolate the adipose fat supporting the ovaries. By slowly pulling out the fat tissue, the ovary was identified and excised the following uterine horn ligation with silk sutures. Fascia was covered with sutures and similar procedure was repeated on the other side as well. Superficial skin layers were sutured and gentamicin (80 mg/kg, s.c.) was given as antibiotic and meloxicam (4 mg/kg, s.c.) as analgesic, then povidone iodine was applied on superficial skin layers. Polyethylene glycol (PEG) was applied to prevent drying of eye balls and kept for recovery period of 3 weeks (surgery was carried by a single experimenter). […]
# Data obtained was compared with basal scoring by using Student's paired two tailed t-test. Duration of attack, and latency of attack between the groups was analyzed using One-Way ANOVA followed by Bonferroni's posthoc test. […]
# [5] = tested on: yohimbine-induced noradrenergic mediated hyperarousal; assay: Elevated plus maze, yohimbine-induced hyperarousal (Example 2); type: in vivo, Wistar rats; settings: for exploration time (time spent in the open arms) / number of open arm entries: 60 min prior to EPM, yohimbine 2.5 mg/kg i.p. 30 min prior, 5 min period; for reduction of noradrenergic mediated hyperarousal: 10 mg/kg i.m. pretreatment, yohimbine 2.5 mg/kg i.p.
# Text: Background: Yohimbine is an alpha 2-adrenergic receptor antagonist reported to trigger panic attacks in healthy volunteers and to exacerbate symptoms in patients with panic disorder (Charney et al., 1992 Acta Psychiatr Scand., Vol. 86 (4): 273-282). Peripheral administration of Yohimbine causes noradrenergic mediated hyperarousal in rats as assessed by the EPM paradigm.
# Rationale: The drug yohimbine is a natural product used to test a specific pathway, noradrenergic-mediated hyper-arousal. It is well established that yohimbine is an alpha2-adrenergic receptor antagonist and activates the locus coeruleus (LC) and increases noradrenergic signaling (the opposite of alpha2-adrenergic agonists like dexmedetomidine and clonidine). Increased LC activity and noradrenergic signaling makes animals anxious and agitated which can be measured by using the elevated plus maze. In the elevated plus maze, rodents were in the closed arms and explored the open arms depending on their anxiety and agitation (rats and mice normally explore their environments extensively when calm).
# Animal groups: Male: Wistar rats were used in this study and were randomly divided to different experimental groups (12 animals per group).
# The test drugs were procured from Sigma or Tocris. dextromethorphan from Sigma Aldrich, Cat No. D9684; latrepirdine from Sigma Aldrich, Cat No. D6196 or Tocris Cat No. 3201 diazepam and fluvoxamine Sigma Aldrich, Cat No. F2802 or Tocris, Cat No. 1033. All these test drugs were formulated in sufficient quantity in 0.9% saline except for Fluvoxamine, which was formulated in 30% ethanol in 0.9% saline.
# Apparatus: Elevated Plus Maze (EPM) was used (FIG. 1). The maze consisted of two closed arms and two open arms forming a cross, with a square center platform. All visible surfaces were made of black acrylic. Each arm of the maze was placed on a support column above the floor. Antistatic black vinyl curtains used for surrounding the EPM to make an enclosure.
# Study Design and Dosing: Yohimbine was administered by intraperitoneal injection (i.p.) at a dose of 2.5 mg/kg (30 minutes prior to study) to induce agitation and the effects were assessed 30 minutes after yohimbine injection by measuring the number of open arm entries and exploration time in the EPM. The test drugs fluvoxamine, dextromethorphan and latrepirdine dihydrochloride hydrate were administered through intramuscular route and, diazepam through intraperitoneal route into the hindleg thigh muscle of rats (60 minutes prior to study; 30 minutes prior to yohimbine administration). Diazepam was injected 30 minutes intraperitonially prior to the assay i.e. along with yohimbine administration. The study design is illustrated in FIG. 2 and table 5.
# After the test drug administration, the rat was placed on the platform opposite a closed arm. The number of entries and the time spent in each arm were recorded during a 5 min period. The animal was considered as entered in arm when it placed its four paws into the arm.
# Statistical Analysis: Analysis of variance (ANOVA) was performed on the result data. Fisher's PLSD was used for pairwise comparisons and p value≤0.05 was considered significant.
smiles,measurement,setting,value
"Cc1cccc([C@H](C)c2cnc[nH]2)c1C [Dexmedetomidine hydrochloride, (+) 4-(S)-[1-(2,3-dimethylphenyl)ethyl]-1H-imidazole]",increase in swimming time as compared to vehicle saline,[1]; 1 μg/kg i.m.,~1.6%
same,distance traveled,[2]; 4 μg/kg i.p.,did not show any significant reduction
same,distance traveled,[2]; 10 μg/kg i.p.,did not show any significant reduction
same,distance traveled,[2]; 20 μg/kg i.p.,did not show any significant reduction
same,distance traveled,[2]; 30 μg/kg i.p.,significant reduction
"Cc1ccc2c(c1)c1c(n2CCc2ccc(C)nc2)CCN(C)C1 [Latrepirdine dihydrochloride hydrate, 2,8-dimethyl-5-[2-(6-methylpyridin-3-yl)ethyl]-3,4-dihydro-1H-pyrido[4,3-b]indole]","Percent increase as referred to the Vehicle level, Entries",[3]; 1 mg/kg i.m.,significant
same,"Percent increase as referred to the Vehicle level, Time",[3]; 1 mg/kg i.m.,significant
same,"Percent increase as referred to the Vehicle level, Entries",[3]; 3 mg/kg i.m.,significant
same,"Percent increase as referred to the Vehicle level, Time",[3]; 3 mg/kg i.m.,significant
same,"number of visits to and time spent into the open arms, dose dependence","[3]; yohimbine administered rats, 0.1, 0.3, 1 and 3 mg/kg i.m.",dose-dependent increase
same,"EPM performance, i.m. compared with i.p. route","[3]; yohimbine rats, 3 mg/kg i.m. vs 3 mg/kg i.p.",comparable
same,EPM performance of saline-treated rats,"[3]; yohimbine-free rats, 3 mg/kg i.m.",did not significantly modify
same,increase in swimming time as compared to vehicle saline,[1]; 1 mg/kg i.m.,9.8%
same,duration of attack,[4],36.87 s
same,exploration time (time spent in the open arms),[5]; 3 mg/kg i.m.,increased
same,number of open arm entries,[5]; 3 mg/kg i.m.,significantly increased
same,exploration time (time spent in the open arms),[5]; 10 mg/kg i.m.,increased
same,number of open arm entries,[5]; 10 mg/kg i.m.,significantly increased
same,distance traveled,[2]; 1 mg/kg i.p.,did not show any significant reduction
same,distance traveled,[2]; 3 mg/kg i.p.,did not show any significant reduction
same,distance traveled,[2]; 10 mg/kg i.p.,did not show any significant reduction
"COc1ccc2c(c1)[C@]13CCCC[C@@H]1[C@H](C2)N(C)CC3 [dextromethorphan, Dextromethorphan]",reduction of noradrenergic mediated hyperarousal,[5],ineffective
same,exploration time (time spent in the open arms),[5]; 10 mg/kg i.m.,no effect
same,number of open arm entries,[5]; 10 mg/kg i.m.,no effect
"COCCCC/C(=N\OCCN)c1ccc(C(F)(F)F)cc1 [fluvoxamine, Fluvoxamine]",reduction of noradrenergic mediated hyperarousal,[5],ineffective
same,exploration time (time spent in the open arms),[5]; 10 mg/kg i.m.,no effect
same,number of open arm entries,[5]; 10 mg/kg i.m.,no effect
"COC(=O)[C@@H]1[C@H]2C[C@H]3c4[nH]c5ccccc5c4CCN3C[C@@H]2CC[C@@H]1O [yohimbine, Yohimbine]",number of visits to and time spent into the open arms,"[3]; 2.5 mg/kg i.p., vehicle-treated, compared to vehicle-treated saline rats",marked significant decrease
